Legend:
Salmonella enteritidis = experiment: Short-term pathogen challenge test, Salmonella enteritidis; format: cell-based; conditions: positive control, 125 ppm; 48 h colonic incubation
[1] = system: adherent-invasive E. coli (AIEC); experiment: Short-term pathogen challenge test, AIEC; format: cell-based, Escherichia coli; conditions: positive control, 125 ppm; 48 h colonic incubation

O=C(O)c1cn(C2CC2)c2cc(N3CCNCC3)c(F)cc2c1=O [ciprofloxacin]
abundance of Salmonella enteritidis (Salmonella enteritidis): strongly decreased abundance of Salmonella enteritidis | abundance of AIEC [1]: decreased abundance of AIEC

From patent US20240016748A1, “DIRECT DELIVERY OF VITAMINS TO INHIBIT MICROBIAL PATHOGENS” (DSM IP ASSETS B.V., priority 2020, published 2024)
